SMILES strings stand for the structures. Converted amounts (≈) assume the structure as drawn.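 How tested: cells in 96-well plates exposed to compound for 48 hours at five concentrations. The concentration for 50% growth inhibition is given as GI50. TGI is the concentration that stops growth completely.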

Data on twelve molecules can be found in PubChem BioAssay (NCI).

Holding throughout (experiment): NCI tumour cell line growth inhibition, 48 h
Assay [1] deals with KM12 colon.
Assay [2] concerns DMS 114 small cell lung.
The test system of assay [3] is LXFL 529 NSCLC.
Assay [4] has as its system SN12C renal.
Assay [5] deals with M19-MEL melanoma.
For assay [6], the system named is SNB-78 CNS.
In assay [7] the test system is MALME-3M melanoma.
Assay [8] has as its system DMS 273 small cell lung.
Assay [9] deals with SR leukemia.
For assay [10], the system named is MDA-MB-435.

As to `CSc1ccc2c(cc1=O)[C@@H](NC(=O)c1ccc(F)cc1)CCc1cc(O)c(O)c(O)c1-2`, the TGI in assay [1], in assay [2], in [3], in assay [4], in assay [5] and in assay [6] was > 100 µM each time. The TGI in assay [7] and in assay [8] was > 100 µM in each case.
Take `O=C(Nc1c(Cl)cc([N+](=O)[O-])cc1Cl)/C(=N\Nc1cccc(Cl)c1)c1c(O)c2ccccc2oc1=O`: the TGI in assay [1], in [2], in [9], in assay [4], in assay [5] and in [7] was > 100 µM in each case.
For `COc1ccc([C@@H]2CC(=O)NCCCCNCCCN2)cc1`, the TGI in assay [1], in [2], in assay [3], in assay [9], in assay [4] and in assay [5] was > 100 µM in each case. Besides, the TGI in assay [6], in assay [7] and in assay [8] was > 100 µM each time.
As for `COc1cc([C@@H]2c3cc4c(c(O)c3C[C@H]3COC(=O)[C@@H]32)OCO4)cc(OC)c1O`, the TGI in assay [1] is > 200 µM; in assay [2] it was 0.00546 µM; in assay [3] it was 0.00859 µM; in [4], 0.431 µM; in [5] it was > 200 µM; in [6], > 200 µM. Moreover, the GI50 was 0.00231 µM in [2]; 0.00372 µM in assay [4]; 0.00461 µM in assay [5]; 0.00309 µM in assay [6]; 0.00116 µM in [7]; 0.00198 µM in assay [8].
With `CN1OC2OC(=O)OC2[C@H]1[C@H]1O[C@H](c2ccccc2)OC1(C)c1cc(OC(=O)c2ccccc2)ccc1OC(=O)c1ccccc1` (some centres not stated), the TGI in assay [1], in [2], in [3], in assay [9], in assay [4] and in [5] was > 50 µM each time. Besides, the TGI in assay [6], in assay [7] and in [8] was > 50 µM each time.
With `CC(=O)NC(CCCCNC(=O)N(C)N=O)C(=O)NCc1ccccc1` (configuration not stated), the TGI in assay [1], in assay [2], in assay [3], in assay [4], in assay [5] and in assay [6] was > 100 µM each time. Moreover, the TGI in assay [7] and in [8] was > 100 µM each time.
For `Cc1cc(NCCCCCCNc2cc(C)nc3ccc(Cl)cc23)c2cc(Cl)ccc2n1`, the TGI was 30.9 µM in assay [1]; 36 µM in assay [2]; > 100 µM in assay [3]; > 100 µM in [9]; 47.2 µM in [4]; 43.4 µM in assay [5]. Moreover, the values for the TGI in assay [6], in assay [7] and in [8] were 56.8 µM, 75.6 µM and 42.1 µM, respectively.
For the molecule `Nc1ccc(N)c2c1C(=O)c1c(N)ccc(N)c1C2=O`, the TGI in assay [1], in assay [2], in assay [4], in [5], in assay [6] and in [7] was > 100 µM each time. In assay [8], the TGI was > 100 µM.
As for `O=C(CSc1nnc(-c2ccc(N=Cc3ccc(Cl)cc3)cc2)o1)Nc1cccc(Cl)c1`, the TGI in assay [1], in [2], in assay [3], in [9], in assay [4] and in [5] was > 100 µM each time. For the same molecule, the TGI in [6], in assay [7] and in [8] was > 100 µM in each case.
For the molecule `S=C(Nc1ccccc1)N1N=C2c3ccccc3CC[C@H]2[C@@H]1c1ccccc1`, the TGI in assay [1] was > 100 µM; in assay [2], > 100 µM; in assay [3], > 100 µM; in assay [9], 1.96 µM; in assay [4], > 100 µM; in assay [5] it was > 100 µM. Moreover, the TGI in assay [6] and in assay [7] was > 100 µM in each case.
Take `NC(N)=Nc1nc2ccccc2[nH]1`: the GI50 was 53.1 µg/mL (≈ 303 µM) in assay [1]; 10.5 µg/mL in assay [2]; 72.9 µg/mL in assay [4]; 20.3 µg/mL in [5]; 150 µg/mL in [6]; 47.4 µg/mL in assay [7]. Moreover, the GI50 in assay [8] was 46.4 µg/mL. Moreover, the TGI in assay [1] was > 150 µg/mL; in [2] it was 68 µg/mL; in assay [4], > 150 µg/mL; in [5], 51 µg/mL; in assay [6] it was > 150 µg/mL; in assay [7], 47.4 µg/mL. In [8], the TGI was > 150 µg/mL.
On to `CC[C@]12C=CCN3CCC4(c5cc([C@@]6(C(=O)OC)CC7CN(CCc8c6[nH]c6ccccc86)C[C@@H]6CCC[C@H]76)c(OC)cc5N(C)C4[C@](O)(C(=O)OC)C1OC(C)=O)C32` (some centres not stated), for which the TGI was 0.0249 µM in assay [10]; 1.01 µM in [2]; > 10 µM in assay [3]; 0.788 µM in assay [9]; > 10 µM in assay [4]; > 10 µM in [5]. For the same molecule, the TGI in assay [6] is > 2.85 µM; in assay [7] it was > 5.04 µM.
